# Where “and” joins values, the source holds several entries; their conditions need not be identical. Equal entries are not always repeated. Where two headings read alike, the source gives them in different places.
# Tests used:
# primary human T cells [1] = test: T cell activation assay, IL-2 secretion (ELISA); type: cell-based
# Method in brief: (§1)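 Primary human T cells stimulated via TCR with anti-CD3/anti-CD28 in the presence of test compound. IL-2 secretion measured by ELISA; surface CD25 and CD69 by flow cytometry. Values are fold-change versus anti-CD3/anti-CD28 stimulation without compound.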
# primary human T cells [2] = test: T cell activation assay, CD25 and CD69 staining (flow cytometry); type: cell-based; settings: fold-change of response relative to baseline
# Method in brief: as §1
# BTK [3] = biological target: T1, BTK (Mus musculus, UniProt P35991); test: In vivo degradation of BTK in mouse PD experiments with oral dosing
# T1 construct: from tissue; host or cells: mouse blood B cells / splenocytes (CD-1 or BALB/c)
# Method in brief: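 BTK in blood or splenocytes read by flow cytometry (or HTRF), degradation taken as B-cell minus T-cell BTK MFI versus vehicle. Mice (CD-1 or BALB/c) received compound orally, initially 90 mg/kg for 6 h, then lower doses and longer time points.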
# TMD8 tumor cells = test: TMD8 xenograft efficacy study (wild-type BTK); type: in vivo, mouse; settings: TMD8 WT, PO, 30 mg/kg, QD, 21 days of dosing
# Method: […] Tumor growth inhibition (% TGI) were calculated on the final day of measurement using the equation [1−(T−T0/C−T0)]×100, where T and C represent the mean size of tumors in the treated (T) and control (C) groups, and T0 refers to the tumor size at randomization.
# (§2) This example examines the activity of various BTK CTMs in relevant disease models, including the WT and C481S TMD8 model, which models B cell malignancies with/without inhibitor-driven BTK mutations at C481.
# [4] = PK data for BTK CTMs (in vivo plasma concentrations); settings: for Vd: read-out: Volume of Distribution
# Excerpt: The present example evaluates in vivo plasma concentrations of BTK CTMs to develop PK-PD-efficacy relationship and predict human exposure.
# TMD8 cells = test: Cell viability assay (CellTiter-Glo), TMD8 cells; settings: for EC50: Homo sapiens, TMD8, 72 h; for EMAX (% viable cells): TMD8 cells, treatment time 72 h
# TMD8 C481S cells = test: Cell viability assay (CellTiter-Glo), TMD8 C481S cells; settings: for EC50: Homo sapiens, TMD8, 72 h; for EMAX (% viable cells): TMD8 C481S cells, treatment time 72 h
# BTK [5] = biological target: BTK (Homo sapiens, UniProt Q06187); test: BTK remaining in TMD8 WT mouse xenograft study; type: in vivo; parameters: from tissue; host or cells: TMD8 xenograft in CB.17 SCID mice; settings: PO, 30 mg/kg, QD, 21 days of dosing
# Excerpt: Efficacy in Mouse Xenograft Models
# as §2
# BTK C481S = BTK C481S (Homo sapiens, UniProt Q06187, C481S); test: BTK degradation (Total BTK HTRF) in TMD8 cells expressing BTK-C481S; type: cell-based; parameters: endogenous in cells; host or cells: TMD8 BTK-C481S (clone2C3), Cas9 RNP knock-in; settings: TMD8 BTK-C481S (clone2C3) cells, treatment time 4 h
# Method: BTK levels were determined using Cisbio Total-BTK HTRF (Homologous Time-Resolved Fluorescence) kit (63ADK064PEG) according to the manufacturer's protocol. Briefly, cells were incubated in 1× supplied lysis buffer for 30 minutes. In an opaque white low volume 96-well plate (Cisbio, 66PL96005), cell lysate was combined with two different specific BTK antibodies, one conjugated with Eu^3+-Cryptate FRET donor and one conjugated with d2 FRET acceptor. Assay controls include wells containing cell lysate with only the Eu^3+-Cryptate FRET donor antibody and wells containing both HTRF antibodies and lysis buffer without cells or control lysate provided by Cisbio. HTRF ratio was calculated as (acceptor signal at 665 nm/donor signal at 620 nm)×10^4. Background HTRF levels were determined from the control well containing the donor, but no acceptor, antibody. Background HTRF levels were subtracted from all samples. Readouts were reported as HTRF levels relative to HTRF levels of DMSO-treated cells. Four-parameter non-linear regressions were performed in GraphPad Prism 7.02 to obtain DC50 values.
# BTK Degradation (Total BTK HTRF) at Four Hours in TMD8 Cells Expressing BTK-C481S
# This example evaluates the potency of CTM in degrading […]. The BTK binding moieties utilized in CTMs bind to the BTK active site. This example evaluates whether the active site mutation C481S affects CTM-induced degradation of BTK.
# [6] = tested on: B cell receptor (BCR) signaling; test: B cell activation assay (flow cytometry), mouse B cells; type: cell-based; settings: treatment 4 h, IgM stimulation 18 h
# Method: Compound was present throughout the stimulation. Cells were stained with Live/Dead dye (Fisher L34976) and then fluorophore-conjugated antibodies against CD20 (Biolegend 302330), CD3 (BD Pharmingen 557705), CD86 (Biolegend 305416) and CD69 (Biolegend 310906). Stained cells were fixed in PFA and run on an Attune N×T Acoustic Focusing Flow Cytometer (Thermo-Fisher A29004), and data was analyzed using FlowJo (v10.5.3) and GraphPad Prism (v7.00) software. Single live lymphocytes were gated for B cells (CD20+CD3−) and T cells (CD3+CD20−), and the geometric mean fluorescence intensity (MFI) of CD86 and CD69 was calculated for each population. The MFI of the unstimulated sample was used to quantify baseline activation.
# This example evaluates whether CTM treatment affects B cell receptor (BCR) signaling. BTK is activated downstream of the B cell receptor and leads to upregulation of activation markers CD86 and CD69 on the surface of B cells.
# [7] = 1.4 nM, fold-change of response relative to baseline
# [8] = 37 nM, fold-change of response relative to baseline
# [9] = 333 nM, fold-change of response relative to baseline (stimulation without compound)
# [10] = oral dose 3 mg/kg, 6 h, blood, flow cytometry
# [11] = oral dose 3 mg/kg, 24 h, blood, flow cytometry
# [12] = Rat Sprague-Dawley, 10 mg/kg PO
Structure (SMILES),IL-2 Secretion Anti-CD3/Anti-CD28 Stimulation (primary human T cells [1]; [7]),IL-2 Secretion Anti-CD3/Anti-CD28 Stimulation (primary human T cells [1]; [8]),IL-2 Secretion Anti-CD3/Anti-CD28 Stimulation (primary human T cells [1]; [9]),CD25 Staining Anti-CD3/Anti-CD28 Stimulation (primary human T cells [2]; 1.4 nM),CD69 Staining Anti-CD3/Anti-CD28 Stimulation (primary human T cells [2]; 1.4 nM),CD25 Staining Anti-CD3/Anti-CD28 Stimulation (primary human T cells [2]; 37 nM),% BTK Remaining (BTK [3]; [10]) [%],% BTK Remaining (BTK [3]; [11]) [%],Tumor Growth Inhibition (relative to vehicle) (TMD8 tumor cells) [%],"AUC ([4]; Mouse Balb/c, 1 mg/kg IV) [µM·h]","clearance ([4]; Mouse Balb/c, 1 mg/kg IV) [mL/min/kg]","Vd ([4]; Mouse Balb/c, 1 mg/kg IV) [L/kg]","AUC ([4]; Mouse Balb/c, 30 mg/kg PO) [µM·h]","bioavailability ([4]; Mouse Balb/c, 30 mg/kg PO) [%]",EC50 (TMD8 cells) [nM],EMAX (% viable cells) (TMD8 cells) [%],EC50 (TMD8 C481S cells) [nM],EMAX (% viable cells) (TMD8 C481S cells) [%],BTK Remaining (% relative to vehicle) (BTK [5]) [%],DC50 (BTK C481S) [nM],further results
CN1CCN([C@@H]2CCCN(c3cnc(C(N)=O)c(Nc4ccc(C5CCN(C6CN(c7ccc8c(c7)C(=O)N(C7CCC(=O)NC7=O)C8=O)C6)CC5)cc4)n3)C2)C1=O (some centres unmarked) [Compound 53],1.22,2.08,2.53,1.09,1.06,1.14,35,56,27,2.75,7.5,0.88,96,113,2.24,16,16.1,24,19,8,"CD69 Staining Anti-CD3/Anti-CD28 Stimulation (primary human T cells [2]; 37 nM): 1.07; CD25 Staining Anti-CD3/Anti-CD28 Stimulation (primary human T cells [2]; 333 nM): 0.84; CD69 Staining Anti-CD3/Anti-CD28 Stimulation (primary human T cells [2]; 333 nM): 0.83; AUC ([4]; Rat Sprague-Dawley, 1 mg/kg IV): 0.31 µM·h; clearance ([4]; Rat Sprague-Dawley, 1 mg/kg IV): 75 mL/min/kg; Vd ([4]; Rat Sprague-Dawley, 1 mg/kg IV): 5.9 L/kg; AUC [4, 12]: 2.3 µM·h; bioavailability [4, 12]: 97%"
CN1CCN([C@H]2CCCN(c3cnc(C(N)=O)c(Nc4cnn(C5CCN(CC6CCN(c7ccc8c(c7)C(=O)N(C7CCC(=O)NC7=O)C8=O)CC6)CC5)c4)n3)C2)C1=O (some centres unmarked) [Compound 83],,,,,,,48,63,39,0.29,68.3,4,0.81,9,1.66,38,4.32,52,22,2.7,EC50 ([6]; read-out: CD69 EC50): 0.08 nM; EC50 ([6]; read-out: CD86 EC50): 0.1 nM
CN1CCN([C@@H]2CCCN(c3cnc(C(N)=O)c(Nc4ccc(N5CCC6(CC5)CCN(c5ccc7c(c5)C(=O)N(C5CCC(=O)NC5=O)C7=O)CC6)cc4)n3)C2)C1=O (some centres unmarked) [Compound 55],,,,,,,,55,17,8.64,2.4,0.48,74.3,29,2.4,15,16.8,19,27,5.8,"% BTK Remaining (BTK [3]; oral dose 0.3 mg/kg, 24 h, blood, flow cytometry): 83%; % BTK Remaining (BTK [3]; oral dose 0.3 mg/kg, 24 h, splenocytes, flow cytometry): 114%; % BTK Remaining (BTK [3]; oral dose 1 mg/kg, 6 h, splenocytes, HTRF, 1 mg/kg): 80% and 66%; % BTK Remaining (BTK [3]; oral dose 3 mg/kg, 6 h, splenocytes, HTRF): 18%; % BTK Remaining (BTK [3]; oral dose 3 mg/kg, 24 h, splenocytes, flow cytometry): 72%; % BTK Remaining (BTK [3]; oral dose 10 mg/kg, 24 h, blood, flow cytometry): 47%; % BTK Remaining (BTK [3]; oral dose 10 mg/kg, 24 h, splenocytes, flow cytometry): 45%; % BTK Remaining (BTK [3]; oral dose 30 mg/kg, 24 h, blood, flow cytometry): 39%; % BTK Remaining (BTK [3]; oral dose 30 mg/kg, 24 h, splenocytes, flow cytometry): 36%; % BTK Remaining (BTK [3]; oral dose 90 mg/kg, 24 h, blood, flow cytometry): 23%; % BTK Remaining (BTK [3]; oral dose 90 mg/kg, 24 h, splenocytes, flow cytometry): 48%"
CN1CCN([C@@H]2CCCN(c3cnc(C(N)=O)c(Nc4ccc(C5CN(C6CCN(c7ccc8c(c7)C(=O)N(C7CCC(=O)NC7=O)C8=O)CC6)C5)cc4)n3)C2)C1=O (some centres unmarked) [Compound 37],1.16,2.06,1.64,1.11,1.08,0.79,26,51,41,1.77,12,1.2,1.79,5,21.1,10,51.7,16,16,2.7,"EC50 ([6]; read-out: CD69 EC50): 0.1 nM; EC50 ([6]; read-out: CD86 EC50): 0.2 nM; CD69 Staining Anti-CD3/Anti-CD28 Stimulation (primary human T cells [2]; 37 nM): 0.77; CD25 Staining Anti-CD3/Anti-CD28 Stimulation (primary human T cells [2]; 333 nM): 0.43; CD69 Staining Anti-CD3/Anti-CD28 Stimulation (primary human T cells [2]; 333 nM): 0.45; AUC ([4]; Rat Sprague-Dawley, 1 mg/kg IV): 0.59 µM·h; clearance ([4]; Rat Sprague-Dawley, 1 mg/kg IV): 36.3 mL/min/kg; Vd ([4]; Rat Sprague-Dawley, 1 mg/kg IV): 4.6 L/kg; AUC [4, 12]: 0.027 µM·h; bioavailability [4, 12]: 1%"

# Source: patent publication US12600732B2, “Bifunctional compounds for degrading BTK via ubiquitin proteosome pathway” (NURIX THERAPEUTICS, INC., priority 2019, dated 2026)
